PMC11352273, “The Proapoptotic Action of Pyrrolidinedione–Thiazolidinone Hybrids towards Human Breast Carcinoma Cells Does Not Depend on Their Genotype” (Cancers, 2024)

Test system: MCF-7, MDA-MB-231, and HCC1954 cell lines
Test: [3H]-thymidine incorporation assay, summary over cancer cell lines
Assay type: cell-based
Details: Homo sapiens; 24 h, MCF-7, MDA-MB-231, HCC1954; read-out: IC50 of DNA synthesis inhibition, range over cell lines
Procedure: Following a 24 h cell treatment, the incorporation of [^3H]-thymidine into the DNA of the breast tumor and normal cells was used to measure the antiproliferative activity of Les-6287. The MCF-7, MDA-MB-231, HCC1954, and MCF-10A cells were seeded into six-well plates (density 3 × 10^5 cells/well) and cultured for 24 h. Then, they were incubated under the same conditions for the next 24 h with a growth medium containing the tested compounds and reference drug (doxorubicin) at different concentrations (1, 2.5, 5, 10, 50 µM). After 24 h, the medium was changed to a fresh one without FBS. A total of 0.5 µCi of tritium-labeled thymidine (specific activity: 7 Ci/mmol) was added to cells for 4 h. The cells were washed with 1 mL of 0.05 M Tris-HCl buffer pH 7.4 containing 0.11 M NaCl and 1 mL of 5% trichloroacetic acid (TCA). Each well was filled with 1 mL of a 0.1 M NaOH solution containing 1% SDS to complete cell lysis. After 5 min, the acquired cell lysates were put into scintillation vials and pre-filled with two milliliters of scintillation liquid. The Scintillation Counter 1900 TR, TRI-CARB (Packard, Perkin Elmer, Inc., San Jose, CA, USA) was used to record the results. The effect of compounds on DNA synthesis was expressed as % of the control (non-treated cells).

IC50: 2320 to 3670 nM
SMILES: O=C1CC(N2C(=O)C(=CC(Cl)=Cc3ccc([N+](=O)[O-])cc3)SC2=S)C(=O)N1c1ccc(O)cc1 (stereo not shown) [Les-6287, 1-(4-hydroxyphenyl)-3-[5-[2-chloro-3-(4-nitrophenyl)prop-2-enylidene]-4-oxo-2-thioxothiazolidine-3-yl]pyrrolidine-2,5-dione]
